Drawing on PubChem BioAssay (NCI), this text covers GI50 and TGI for 7 compounds.

Several values for one entry are separate records, joined by “and”; a condition that tells them apart may be missing. Equal entries are not always repeated.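 1) Cells in 96-well plates. 2) Compound, 48 h, 5 concentrations. 3) Linear interpolation between surrounding doses. 4) Unreached endpoint = highest concentration. Here, GI50 denotes the concentration required for 50% inhibition of growth. TGI: total growth inhibition.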 Some results are limits rather than exact numbers.

Some test systems named below: SF-539 CNS; SF-268 CNS; SF-295 CNS; UACC-257 melanoma; SNB-75 CNS; NCI-H460 lung; SK-MEL-2 melanoma; T-47D breast; BT-549 breast; PC-3 prostate.
Test in all cases: NCI anticancer screen, dose series, 48 h

In the case of `CCCC(=O)Nc1cn(COC)c(C(=O)N2C[C@H]3C[C@@]34C2=CC(=O)c2[nH]cc(C)c24)n1`, the GI50 is 1.87 µM in the assay with SF-539 CNS; 3.4 µM in the assay on SF-268 CNS; 5 µM in the assay with SF-295 CNS; 10.5 µM with UACC-257 melanoma; 32 µM in the assay with SNB-75 CNS; 7.39 µM with SK-MEL-2 melanoma. The values for the GI50 with T-47D breast and in the assay with BT-549 breast were 2.91 µM and 5.51 µM, respectively. The TGI with SF-539 CNS was 37.7 µM and 38.4 µM; with SF-268 CNS it was 50 µM and > 100 µM; with SF-295 CNS it was 50 µM and 67.2 µM; in the assay on UACC-257 melanoma, 18.7 µM and 83.3 µM; with SNB-75 CNS it was 21.6 µM and > 100 µM; with NCI-H460 lung it was 15.9 µM and 28.7 µM. Also, the TGI was 50 µM and > 100 µM in the assay on SK-MEL-2 melanoma; 25.4 µM and 34.8 µM in the assay with T-47D breast; 43.1 µM and 58.9 µM in the assay with BT-549 breast; 50 µM and > 100 µM in the assay with PC-3 prostate.
`COc1ccc(-c2cn(-c3cc(OC)c(OC)c(OC)c3)c(=O)n2-c2ccccc2)cc1`: the GI50 in the assay on SF-539 CNS is greater than 100 µM; in the assay on SF-268 CNS, greater than 100 µM; with SF-295 CNS, greater than 100 µM; in the assay with UACC-257 melanoma, greater than 100 µM; with SNB-75 CNS, 30.7 µM; in the assay on NCI-H460 lung, greater than 100 µM. For the same compound, the GI50 in the assay with SK-MEL-2 melanoma was greater than 100 µM; in the assay with T-47D breast it was 27.3 µM; in the assay with BT-549 breast, greater than 100 µM; in the assay with PC-3 prostate, greater than 100 µM. The TGI with SF-539 CNS, in the assay with SF-268 CNS, in the assay on SF-295 CNS, with UACC-257 melanoma, in the assay with SNB-75 CNS and in the assay with NCI-H460 lung was greater than 100 µM throughout. The TGI in the assay on SK-MEL-2 melanoma, in the assay on T-47D breast, in the assay with BT-549 breast and in the assay with PC-3 prostate was greater than 100 µM throughout.
`CN1CCN(CCCOc2ccc3ncnc(Nc4ccc(Oc5cccc(F)c5)c(Cl)c4)c3c2)CC1`: the GI50 is 1.54 µM with SF-539 CNS; 1.47 µM in the assay with SF-268 CNS; 1.8 µM with SF-295 CNS; 1.96 µM in the assay with UACC-257 melanoma; 1.4 µM in the assay on SNB-75 CNS; 1.77 µM in the assay on NCI-H460 lung. The GI50 in the assay with SK-MEL-2 melanoma was 1.95 µM; with T-47D breast, 1.34 µM; in the assay on BT-549 breast, 1.7 µM; in the assay on PC-3 prostate it was 1.68 µM. Also, the TGI in the assay with SF-539 CNS is 2.93 µM; in the assay with SF-268 CNS, 3.14 µM; with SF-295 CNS, 3.25 µM; with UACC-257 melanoma, 4.06 µM; in the assay with SNB-75 CNS, 2.75 µM; in the assay with NCI-H460 lung, 3.3 µM. Further, the TGI came out at 4.04 µM in the assay with SK-MEL-2 melanoma, 4.35 µM in the assay on T-47D breast, 3.3 µM in the assay on BT-549 breast and 3.45 µM in the assay with PC-3 prostate.
Consider `NCCn1c2c(c3ccccc3c1=O)C(=O)c1ccccc1-2`, for which the GI50 is 0.211 µM with SF-539 CNS; 1.32 µM with SF-268 CNS; 0.315 µM in the assay with SF-295 CNS; 0.64 µM in the assay with UACC-257 melanoma; 1.04 µM in the assay with SNB-75 CNS; 2.7 µM in the assay on SK-MEL-2 melanoma. Also, the GI50 with T-47D breast was 0.308 µM; in the assay on BT-549 breast, 2.42 µM; in the assay on PC-3 prostate, 1.11 µM. Moreover, the TGI in the assay with SF-539 CNS was determined as 1.06 µM; in the assay with SF-268 CNS it was 8.99 µM; in the assay on SF-295 CNS, 1.48 µM; with UACC-257 melanoma it was 2.64 µM; in the assay on SNB-75 CNS it was 3.2 µM; in the assay on NCI-H460 lung it was 6.4 µM. The TGI in the assay on SK-MEL-2 melanoma came to 9.71 µM; with T-47D breast, 1.28 µM; in the assay with BT-549 breast it was 10.1 µM; in the assay with PC-3 prostate it was 8.73 µM.
On to `O=C(Nc1nc2ccc(F)cc2s1)c1cccnc1Nc1ccc(Cl)cc1Cl`, for which the GI50 in the assay with SF-539 CNS was 4.15 µM; in the assay on SF-268 CNS it was 3.34 µM; in the assay with SF-295 CNS, 1.93 µM; in the assay on UACC-257 melanoma, 0.753 µM; with SNB-75 CNS it was 1.96 µM; in the assay with NCI-H460 lung it was 2.67 µM. The GI50 in the assay with SK-MEL-2 melanoma was 3.3 µM; in the assay with T-47D breast, 1.61 µM; in the assay with BT-549 breast, 2.97 µM; in the assay on PC-3 prostate it was 2.21 µM. In addition, the TGI in the assay with SF-539 CNS was found to be 15.3 µM; in the assay with SF-268 CNS, 16.3 µM; with SF-295 CNS, 8.02 µM; in the assay on UACC-257 melanoma, 7.73 µM; in the assay on SNB-75 CNS, 9.14 µM; in the assay with NCI-H460 lung it was 12.4 µM. Besides, the TGI is greater than 26.2 µM with SK-MEL-2 melanoma, 8.01 µM with T-47D breast, 17.5 µM in the assay with BT-549 breast and 9.45 µM in the assay on PC-3 prostate.
As for `COc1cc(/C=C2\C(=O)Nc3ccc(Br)cc32)cc(OC)c1OC`, the GI50 is 26.7 µM in the assay with SF-539 CNS; 36.9 µM in the assay on SF-268 CNS; 12 µM with SF-295 CNS; greater than 50.7 µM in the assay on UACC-257 melanoma; 4.01 µM in the assay with SNB-75 CNS; 8.76 µM in the assay on NCI-H460 lung. Further, the GI50 was 12.9 µM in the assay with SK-MEL-2 melanoma, 3.06 µM in the assay with T-47D breast, 1.28 µM with BT-549 breast and 3.92 µM in the assay on PC-3 prostate. The TGI with SF-539 CNS was greater than 100 µM; with SF-268 CNS, greater than 100 µM; with SF-295 CNS, 68.9 µM; in the assay on UACC-257 melanoma, greater than 100 µM; with SNB-75 CNS, 14.5 µM; in the assay on NCI-H460 lung, greater than 100 µM. Moreover, the TGI is 55.2 µM in the assay with SK-MEL-2 melanoma, greater than 100 µM in the assay on T-47D breast, 19.3 µM in the assay on BT-549 breast and greater than 100 µM in the assay on PC-3 prostate.
Regarding `Fc1ccc(-c2cc(-c3cn[nH]c3-c3ccccn3)ccn2)cc1`, the GI50 with SF-539 CNS is greater than 25 µM; in the assay on SF-268 CNS, greater than 25 µM; with SF-295 CNS, greater than 25 µM; in the assay with UACC-257 melanoma, greater than 25 µM; with SNB-75 CNS it was greater than 25 µM; in the assay with NCI-H460 lung, 24.7 µM. For the same compound, the GI50 in the assay with SK-MEL-2 melanoma, in the assay on T-47D breast, with BT-549 breast and with PC-3 prostate was greater than 25 µM throughout. In addition, the TGI with SF-539 CNS, in the assay on SF-268 CNS, with SF-295 CNS, in the assay on UACC-257 melanoma, in the assay with SNB-75 CNS and with NCI-H460 lung was greater than 25 µM in each case. In addition, the TGI in the assay with SK-MEL-2 melanoma, in the assay on T-47D breast, in the assay with BT-549 breast and in the assay with PC-3 prostate was greater than 25 µM in each case.
